# Results published in patent publication US5998468A, “Furanone endothelin antagonists” (Warner-Lambert Company, priority 1997, dated 1999).
# “Also recorded” adds a separate entry of the source. Like-named read-outs stand apart in the source and are kept apart here. Where a SMILES comes first, the peptide text is derived from it. [ ]: non-standard residue; d: D form.
# Experiments:
# [1] = test system: early cerebral vasospasm following SAH; conditions: cited from earlier work; for early cerebral vasospasm following SAH: rat
# [2] = test system: early cerebral vasospasm following SAH; conditions: rabbit; cited from earlier work
# ETA = conditions: mouse endotoxic shock; cited from earlier work
# endothelin receptor ETA = biological target: T1, endothelin receptor ETA (Oryctolagus cuniculus, UniProt A5A8K3); format: binding; conditions: [125I]-ET-1 25 pM, rabbit renal artery vascular smooth muscle cells; read-out: ERBA-A IC50
# T1 sequence (A5A8K3 21-427): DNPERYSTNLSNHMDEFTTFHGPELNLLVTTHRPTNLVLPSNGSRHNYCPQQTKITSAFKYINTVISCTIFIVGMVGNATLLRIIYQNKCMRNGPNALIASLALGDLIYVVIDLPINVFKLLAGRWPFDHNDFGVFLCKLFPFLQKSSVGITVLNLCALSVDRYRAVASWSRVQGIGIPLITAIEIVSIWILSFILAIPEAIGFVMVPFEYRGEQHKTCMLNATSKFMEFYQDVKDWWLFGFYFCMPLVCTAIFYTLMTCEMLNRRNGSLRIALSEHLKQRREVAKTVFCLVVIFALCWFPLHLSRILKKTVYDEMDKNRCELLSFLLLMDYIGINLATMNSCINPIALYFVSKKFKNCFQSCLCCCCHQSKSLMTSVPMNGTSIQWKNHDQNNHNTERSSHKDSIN
# From the text: (§1) The compounds of Formula I are valuable antagonists of endothelin.
# endothelin receptor ETB = assay: Endothelin receptor binding assay-B (ERBA-B), [125I]-ET-1 binding in rat cerebellar membranes; conditions: [125I]-ET-1 25 pM, rat cerebellar membranes (also modified with human ETB in CHO-K1)
# From the text: as §1
# Count filters for radioactivity in gamma counter.
# The above process has also been modified by using human recombinant CHO-K1 cells.
# The tissue used for human ETB was recombinant human ETB receptor expressed in CHO-K1 cells (chinese hamster ovary cells). The gene for human ETB receptor was cloned and inserted into the pRc-CMW expression vector, then transfected into CHO-K1 cells by electroporation. For binding assays, membranes (0.7 mg protein) of CHO-K1 cells expressing recombinant human ETB receptor were used.
# basilar artery = conditions: after 7 days, canine two-hemorrhage model of SAH; cited from earlier work
compound,measurement,setting,value
CC(C)C[C@@H]1NC(=O)[C@@H](C(C)C)NC(=O)[C@@H]2CCCN2C(=O)[C@@H](CC(=O)O)NC(=O)[C@@H](Cc2c[nH]c3ccccc23)NC1=O [BQ-123] (cyclo(L[dW][dD]P[dV])),early cerebral vasospasm following SAH,[1],prevent early cerebral vasospasm following subarachnoid hemorrhage; also recorded: prevents early cerebral vasospasm
same,early cerebral vasospasm following SAH,[2],prevents early cerebral vasospasm
same,survival rate,ETA,significantly increased
"COc1ccc(C2OC(=O)C(c3ccc4c(c3)OCO4)=C2Cc2ccccc2)cc1 (centres unmarked) [Example 1, 3-Benzo[1,3]dioxol-5-yl-4-benzyl-5-(4-methoxyphenyl)-5H-furan-2-one]",IC50,endothelin receptor ETA,700 nM
same,IC50,endothelin receptor ETB,> 2500 nM
"COc1ccc(C2OC(=O)C(c3ccc4c(c3)OCO4)=C2Cc2cc(OC)c(OC)c(OC)c2)cc1 (centres unmarked) [Example 2, 3-Benzo[1,3]dioxol-5-yl-5-(4-methoxyphenyl)-4-(3,4,5-trimethoxybenzyl)-5H-furan-2-one]",IC50,endothelin receptor ETA,30 nM
"COc1ccc(CC2=C(c3ccc4c(c3)OCO4)C(=O)OC2c2cc(OC)c(OC)c(OC)c2)cc1 (centres unmarked) [Example 3, 3-Benzo[1,3]dioxol-5-yl-4-(4-methoxybenzyl)-5-(3,4,5-trimethoxyphenyl)-5H-furan-2-one]",IC50,endothelin receptor ETA,> 100 nM
"COc1ccc(C2OC(=O)C(c3ccc4c(c3)OCO4)=C2Cc2ccc(OC)c(C)c2)cc1 (centres unmarked) [Example 4, 3-Benzo[1,3]dioxol-5-yl-4-(4-methoxy-3-methylbenzyl)-5-(4-methoxyphenyl)-5H-furan-2-one]",IC50,endothelin receptor ETA,200 nM
COc1cccc(Oc2c(NS(=O)(=O)c3ccc(C(C)(C)C)cc3)ncnc2OCCO)c1 [Ro 46-2005],systemic arterial blood pressure,[1]; rat SAH,no significant effect
same,early cerebral vasospasm following SAH,[1],prevent early cerebral vasospasm
FR 139317,vasoconstriction of the basilar artery,basilar artery,significantly inhibited
